These results are taken from paper PMC11881554 (Antimicrobial Agents and Chemotherapy, 2025).

The conditions of data set [1]: healthy adults, multidose cefepime and zidebactam; cited from earlier work.
Data set [2] has as its system E. coli ATCC BAA202 (SHV-1). Put plainly: MIC by agar dilution, E. coli ATCC BAA202. In kind it is cell-based. To be noted: Escherichia coli, ATCCBAA202, MB076 fixed at 4 µg/mL in the combination. How it is done: (§1) Cation adjusted (25.0 mg/L Ca^2+ and 12.5 mg/L Mg^2+) Mueller-Hinton broth (CAMHB; BBL Microbiology Systems, Cockeysville, MD) and agar (CAMHA; Becton, Dickinson and Company, Sparks, MD) were used for susceptibility testing and for all in vitro experiments. […] All antibiotic solutions were filter sterilized using a 0.22-μm-pore-size filter (Fisher Scientific, Pittsburgh, PA).
On the technique in general: In agar dilution, organisms are placed on agar that contains the substance at set levels.

Data set [3] has as its system K. pneumoniae Kpn original KPC-2. Nature of the data set: MIC by agar dilution, Kpn original KPC-2. Format: cell-based. Particulars: Klebsiella pneumoniae, MB076 fixed at 4 µg/mL in the combination. How it is done: as §1
Data set [4] has as its system K. pneumoniae Kpn 34700 (CTX-M-15, SHV, TEM). Put plainly: MIC by agar dilution, Kpn 34700. To be noted: Klebsiella pneumoniae, MB076 fixed at 4 µg/mL in the combination. Format: cell-based. Here is the method:
as §1

The test system of data set [5] is K. pneumoniae isolate KPC-Kpn-1. Put plainly: Neutropenic mouse lung infection model (intranasal challenge). In kind it is in vivo. Particulars: 24 h post treatment; treatment from 2 h post infection; cefepime 127.5 mg/kg/day SC, MB076 100 mg/kg/day IV (25 mg/kg every 6 h); neutropenic mice, n = 5. Here is the method: (§2) A 0.2 mL aliquot of a single-use glycerol stock of the KPC-Kpn isolate (at −80°C) was used to seed 20 mL brain heart infusion (BHI) and then incubated at 35–37°C with shaking (120 rpm) for 8 h. Bacterial cells in the 20 mL aliquot were pelleted by centrifugation (3,500 × g) for 15 min and then resuspended in 10 mL cold phosphate buffer saline (PBS). The optical density, OD620 nm, was measured and used to guide dilution. The PBS suspensions were stored on ice for no more than 2 h prior to infecting the animals. The bacterial count in the challenge organism suspension was enumerated by dilution plating to CAMH agar plates followed by 20–24 h incubation.
Eleven- to 12-week-old BALB/c mice obtained from Charles River Laboratories (Raleigh, NC) were allowed to acclimatize for at least 1 week prior to initiating the studies. All animal procedures were approved by the Institutional Animal Care and Use Committee at the University of North Carolina at Chapel Hill (IACUC ID: 21-125.0), and all experiments were performed in accordance with institutional guidelines for animal experiments. […]
Five mice/group were sacrificed by overdose of inhaled 5% isoflurane at 26 h post inoculation. […] Lung bacterial counts were analyzed using a one-way ANOVA followed by post-hoc Tukey multiple comparison test (GraphPad Prism 10.1, GraphPad Software Inc., San Diego, USA). […]

The subject of data set [6] is K. pneumoniae Kpn ST258 B5 (KPC-2). Put plainly: MIC by agar dilution, Kpn ST258 B5. In kind it is cell-based. Particulars: Klebsiella pneumoniae, MB076 fixed at 4 µg/mL in the combination. How it is done:
as §1

In data set [7] the test system is K. pneumoniae Kpn ST17 (KPC-2, TEM, SHV, CTX-M group 1). Nature of the data set: MIC by agar dilution, Kpn ST17. In kind it is cell-based. Particulars: Klebsiella pneumoniae, MB076 fixed at 4 µg/mL in the combination. How it is done: as §1
Data set [8] has as its system K. pneumoniae Kpn ST258 C3 (KPC-3). Put plainly: MIC by agar dilution, Kpn ST258 C3. Format: cell-based. Particulars: Klebsiella pneumoniae, MB076 fixed at 4 µg/mL in the combination. Here is the method:
as §1

The test system of data set [9] is K. pneumoniae KPC-Kpn-1. Put plainly: Survival of mice infected intravenously via the tail vein. Format: in vivo. Particulars: male C57BL/6, 7 per group, 2.1 × 10^8 CFU/mouse IV; 100 mg/kg/dose at infection, 18 and 24 h; combination at 1:4 molar ratio. Here is the method: as §2
Seven male C57BL/6 mice per treatment group were infected intravenously via the tail-vein by injecting a prepared inoculum of KPC-Kpn-1, input CFU = 2.1 × 10^8 CFU/mouse, contained in a volume of 0.25 mL per animal. […] Doses were repeated the following morning and afternoon (18 and 24 h after infection). Survival was evaluated 24 h post-treatment. Kaplan-Meier survival curves were generated using log-rank test (GraphPad Prism 10.1, GraphPad Software Inc., San Diego, USA). A P value of <0.05 was considered statistically significant.

Data set [10] has as its system K. pneumoniae Kpn 255 (TEM-1, SHV-2). Put plainly: MIC by agar dilution, Kpn 255. Particulars: Klebsiella pneumoniae, MB076 fixed at 4 µg/mL in the combination. In kind it is cell-based. Here is the method: as §1
In data set [11] the test system is K. pneumoniae Kpn266 (SHV-5). Nature of the data set: MIC by agar dilution, Kpn266. Format: cell-based. Particulars: Klebsiella pneumoniae, MB076 fixed at 4 µg/mL in the combination. Here is the method: as §1
Data set [12] relates to K. pneumoniae KPC-Kpn-1 (KPC-3, SHV-12, TEM-1). Nature of the data set: MIC by agar dilution, KPC-Kpn-1. In kind it is cell-based. Particulars: Klebsiella pneumoniae, inhibitor (MB076 or S02030) fixed at 4 µg/mL in the combination. Here is the method:
as §1

Data set [13] in a line: Plasma pharmacokinetics of MB076 after single IV dose in thigh-infected mice. Format: in vivo, mouse. To be noted: for half-life / AUC(0-t) / AUC(0-inf) / C0 / clearance / Vd: plasma; for half-life: iv; for Vd: read-out: Vss. Here is the method: A single dose PK study was conducted in mice infected with K. pneumoniae AR-BANK#0098 (producing KPC-2, OXA-9, and TEM-1) employing a thigh infection model. Escalating doses of MB076 (12.5, 25, 50, and 100 mg/kg) were intravenously administered via the tail vein. Following this terminal blood sampling via cardiac puncture was performed at eight different time points 5, 15, 30, 60, 90, 120, 180, and 240 min for each dose level. Plasma was separated by centrifugation at 4,000g for 10 min at 4°C and stored at −80°C until MB076 quantification was performed by LC/MS-MS bioanalysis.
WinNonlin software (Phoenix Build 8.3.1.5014) was employed to perform noncompartmental analysis (NCA) to calculate the PK parameters like elimination half-life (t1/2), area under the concentration–time curve over the duration of study (AUC0–last), and infinity (AUC0–inf), and the peak drug concentration (C0), volume of distribution (V) and clearance (CL). The AUCs for the different MB076 dose levels were calculated and compared to assess for any dose related non-linearity with increasing dose.
Terminal blood collection from cardiac puncture was conducted under CO2 euthanasia. Blood, 0.3–0.4 mL, was drawn into tubes coated with K2EDTA, mixed gently and kept on ice, and centrifuged at 12,000 × g for 5 min at 4°C within 1 h of collection. The plasma was harvested and stored at −80°C until further processing.
A 20 µL aliquot of each plasma sample was transferred to a 96 well plate. A 500 µL aliquot of 0.01 ng/µL internal standard (IS), Oxybutynin, in ACN/FA = 95/5, was added to each tube except for the double blank and carryover controls. A 500 µL aliquot of ACN/FA = 95/5, without oxybutynin, was added to the double blank and carryover assay wells. The equilibrated mixture was vortexed for 1 min and then centrifuged at 4,000 rpm for 10 min at 20°C to precipitate protein. After centrifugation, 500 µL of the supernatant was transferred to a new well of the 96 well plate for LC-MS/MS analysis. Plasma samples from treatment groups and the calibration curve samples were processed on the same test occasion using the same procedure. The calibration curve samples were generated by spiking aliquots of drug-free plasma with an MB076 dilution. The quality control (QC) samples, QH (high), QM (medium), and QL (low) were each assayed in duplicate.
LC-MS/MS was conducted with a SCIEX Triple Quad 5500 + mass spectrometer. Method development was conducted to determine appropriate conditions for LC-MS/MS analysis of MB076. A titration of a stock solution was performed to correlate peak areas and the corresponding concentration. The reportable linear range of the assay was determined along with the lower and upper limits of quantitation (LLOQ and […]).
To develop the bioanalytical method, MB076 was prepared in ACN/H2O = 50/50 at 1 ng/µL. Full scan MS analyses were conducted, and total ion current chromatograms and corresponding mass spectra were reviewed for MB076 in both positive and negative ionization modes. The precursor ions for MS/MS were selected from either the positive or the negative mass spectrum, as a function of the respective ion abundance. In addition, product ion MS/MS analysis was performed to determine the appropriately selected fragmentation reaction for use in quantitative analysis. The final reaction monitoring parameters were chosen to maximize the ability to quantify the test compound when present within a complex mixture of components. Following the identification of the specific multiple reaction monitoring (MRM) transition to be used for each test compound, the detection parameters were optimized. MB076 was observed as one charged ion [M + H]+ and the MRM chosen was m/z = 374.0 to m/z = 243.2 for MB076 in electrospray positive ion mode.
The chromatographic conditions used for LC-MS analysis were identified by injection and separation of the analyte on a suitable LC column followed by adjustment of the gradient conditions as necessary. […]

Data set [14] deals with K. pneumoniae KPC-Kpn-1. Nature of the data set: Static time-kill assay in CAMHB. Format: cell-based. To be noted: in combination with cefepime. Here is the method: as §1
Details of data set [15]: method as in PMID 37358467. To be noted: cited from earlier work.
Where [16] appears, read: mouse, 12.5 mg/kg single IV, thigh-infected mice.
Setting [17] is: mouse, 25 mg/kg single IV, thigh-infected mice.
The mark [18] stands for this setting: mouse, 50 mg/kg single IV, thigh-infected mice.
[19] abbreviates: mouse, 100 mg/kg single IV, thigh-infected mice.

Read-outs that look alike come from different tables or passages of the source.

One may read the MIC as the lowest concentration found to suppress growth. The term half-life denotes the time needed for the level to fall by half in the phase considered. Lower therefore signals fast loss. Usually AUC(0-inf) stands for total exposure, with the tail of the curve extrapolated. A word on the clearance: it is the rate of elimination divided by the concentration. Low readings indicate a low capacity for elimination, high ones a high capacity for elimination.

Regarding `CO/N=C(\C(=O)N[C@@H]1C(=O)N2C(C(=O)[O-])=C(C[N+]3(C)CCCC3)CS[C@H]12)c1csc(N)n1` [FEP, cefepime], the “median AUCELF/AUCplasma” value in data set [1] is on record as 38%. In addition, the MIC in [2] worked out at 1 µg/mL; in data set [3], 64 µg/mL; in data set [4], 32 µg/mL; in data set [6], 32 µg/mL; in [7], 8 µg/mL; in data set [8] it was 32 µg/mL. For the same compound, the MIC was found to be 4 µg/mL in [10], 2 µg/mL in data set [11] and 32 µg/mL in data set [12]. The “log10 CFU reduction in lung compared to the no treatment control group” value in [5] worked out at 1.07 log10 CFU. Moreover, in data set [9], the “survival outcome of all mice in the group” value is given as “died”.

For `Nc1nnc(SCC(=O)N[C@@H](Cn2cc(C(=O)O)nn2)B(O)O)s1` [MB076], the reduction in clearance in data set [13] (100 mg/kg compared to 12.5 mg/kg) was determined as 1.7 fold. In addition, the “increase of dose-normalized AUC” value in [13] (from 12.5 to 100 mg/kg dose) was “twofold”. In addition, the extraction ratio in [13] (hepatic blood flow in mouse 5.4 L/h/kg) was 0.33. In addition, the clearance classification result in data set [13] (mouse, IV) is listed as “low clearance compound”. The half-life was 36.6 min in data set [13] (mouse, 25 mg/kg, 25 mg/kg single IV, thigh-infected mice); 25.8 min in data set [13] (mouse, 50 mg/kg, 50 mg/kg single IV, thigh-infected mice); 25.8 min in data set [13] (mouse, 100 mg/kg, 100 mg/kg single IV, thigh-infected mice). Besides, the AUC(0-t) in data set [13] (mouse, single IV 12.5 to 100 mg/kg, infected mice, read-out: AUClast, range over the dose levels) is 7100 to 103000 ng·h/mL; in [13] (mouse, 12.5 mg/kg single IV, thigh-infected mice, read-out: AUClast), 7100 ng·h/mL; in data set [13] (mouse, 25 mg/kg single IV, thigh-infected mice, read-out: AUClast), 17600 ng·h/mL; in data set [13] (mouse, 50 mg/kg single IV, thigh-infected mice, read-out: AUClast), 39000 ng·h/mL; in data set [13] (mouse, 100 mg/kg single IV, thigh-infected mice, read-out: AUClast) it was 103000 ng·h/mL. Further, the “dose linearity of plasma PK” value in data set [13] (mouse, single IV) is “linear PK in plasma up to 50 mg/kg dose”. For the same compound, the area under the curve AUC(0-inf) in data set [13] (setting [16]) came to 7200 ng·h/mL; in data set [13] (setting [17]), 17800 ng·h/mL; in data set [13] (setting [18]), 31900 ng·h/mL; in [13] (setting [19]), 104000 ng·h/mL. The C0 in data set [13] (setting [16]) stood at 35.6 µg/mL; in [13] (setting [17]), 84 µg/mL; in [13] (setting [18]) it was 207 µg/mL; in [13] (setting [19]), 638 µg/mL. Moreover, the clearance in data set [13] (setting [16]) was 29.1 mL/min/kg; in [13] (setting [17]), 23.4 mL/min/kg; in data set [13] (setting [18]), 21.3 mL/min/kg; in [13] (setting [19]) it was 16.1 mL/min/kg. Moreover, the Vd in data set [13] (setting [16]) was determined as 0.65 L/kg; in data set [13] (setting [17]), 0.8 L/kg; in data set [13] (setting [18]), 0.35 L/kg; in [13] (setting [19]), 0.21 L/kg. The “inhibitor concentration achieving sustained bacterial killing” value in data set [14] is 4 µg/mL. Besides, in data set [15], the “t1/2 (plasma stability)” value is 1740 min.

`O=C(Cc1cccs1)N[C@@H](Cn1cc(C(=O)O)nn1)B(O)O` [S02030]: the “inhibitor concentration achieving sustained bacterial killing” value in [14] is on record as 8 µg/mL. In [15], the “t1/2 (plasma stability)” value was 540 min.
